Assay results: ChEMBL document CHEMBL3045195, “Comparison of the activity of non-steroidal ecdysone agonists between dipteran and lepidopteran insects, using cell-based EcR reporter assays” (Pest Manag Sci, 2010)
Active and inactive are the calls of the source. The calls are words filed in the database; no cut-off is given here.

How the values were obtained:
[1] = molecular target: T1, Ecdysone receptor (Drosophila melanogaster) (UniProt P34021+P20153); experiment: (§1) Agonist activity at ecdysone receptor in Drosophila melanogaster S2 cells after 24 hr by luciferase reporter gene assay; type: cell-based
[2] = molecular target: T2, Ecdysone receptor (Bombyx mori) (UniProt P49881); experiment: (§2) Agonist activity at ecdysone receptor in Bombyx mori Bm5 cells after 24 hr by luciferase reporter gene assay; type: cell-based
T2 sequence (whole entry): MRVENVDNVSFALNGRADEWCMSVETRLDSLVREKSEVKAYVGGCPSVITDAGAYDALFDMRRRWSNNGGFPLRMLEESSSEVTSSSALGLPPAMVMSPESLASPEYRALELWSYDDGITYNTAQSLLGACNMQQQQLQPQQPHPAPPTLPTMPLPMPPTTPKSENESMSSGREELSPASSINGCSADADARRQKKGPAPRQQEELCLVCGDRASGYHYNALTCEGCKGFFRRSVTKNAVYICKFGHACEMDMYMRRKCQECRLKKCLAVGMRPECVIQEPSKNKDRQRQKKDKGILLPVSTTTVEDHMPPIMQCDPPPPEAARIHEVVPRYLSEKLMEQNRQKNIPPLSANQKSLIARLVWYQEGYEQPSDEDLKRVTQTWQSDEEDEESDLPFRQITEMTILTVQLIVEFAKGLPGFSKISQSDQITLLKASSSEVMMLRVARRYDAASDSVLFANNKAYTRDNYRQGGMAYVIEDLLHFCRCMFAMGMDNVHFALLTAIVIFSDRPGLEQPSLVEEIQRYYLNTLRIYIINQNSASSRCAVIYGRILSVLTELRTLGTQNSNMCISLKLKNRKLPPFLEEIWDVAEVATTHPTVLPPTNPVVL

[3] = molecular target: T3, Ecdysone receptor (Drosophila melanogaster, UniProt P20153+P34021); experiment: Agonist activity at ecdysone receptor in Drosophila melanogaster B2 cells assessed as reduction in cell density
T3 sequence (P34021 whole entry): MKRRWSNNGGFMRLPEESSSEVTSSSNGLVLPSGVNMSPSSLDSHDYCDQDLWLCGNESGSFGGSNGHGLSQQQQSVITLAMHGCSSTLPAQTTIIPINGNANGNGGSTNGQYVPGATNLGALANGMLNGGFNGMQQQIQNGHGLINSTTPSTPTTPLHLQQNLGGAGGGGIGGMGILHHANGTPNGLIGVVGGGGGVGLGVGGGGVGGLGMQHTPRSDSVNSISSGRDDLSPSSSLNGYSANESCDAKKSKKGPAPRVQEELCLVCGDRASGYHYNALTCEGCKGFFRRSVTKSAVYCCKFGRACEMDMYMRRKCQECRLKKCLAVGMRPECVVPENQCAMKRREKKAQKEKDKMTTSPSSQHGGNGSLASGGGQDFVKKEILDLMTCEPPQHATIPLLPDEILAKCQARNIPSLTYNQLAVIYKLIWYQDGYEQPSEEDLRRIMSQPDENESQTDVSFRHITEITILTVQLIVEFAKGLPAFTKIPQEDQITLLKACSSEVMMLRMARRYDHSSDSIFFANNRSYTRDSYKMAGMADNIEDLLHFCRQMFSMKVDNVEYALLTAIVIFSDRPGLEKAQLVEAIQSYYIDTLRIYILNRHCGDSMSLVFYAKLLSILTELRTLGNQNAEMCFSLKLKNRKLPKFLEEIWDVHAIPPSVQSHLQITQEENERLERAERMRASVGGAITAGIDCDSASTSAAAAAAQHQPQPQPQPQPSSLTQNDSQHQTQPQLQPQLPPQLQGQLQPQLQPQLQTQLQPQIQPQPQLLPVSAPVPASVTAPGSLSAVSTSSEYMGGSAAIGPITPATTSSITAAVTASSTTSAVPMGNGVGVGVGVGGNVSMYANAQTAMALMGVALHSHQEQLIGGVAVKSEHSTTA
T3 sequence (P20153 whole entry): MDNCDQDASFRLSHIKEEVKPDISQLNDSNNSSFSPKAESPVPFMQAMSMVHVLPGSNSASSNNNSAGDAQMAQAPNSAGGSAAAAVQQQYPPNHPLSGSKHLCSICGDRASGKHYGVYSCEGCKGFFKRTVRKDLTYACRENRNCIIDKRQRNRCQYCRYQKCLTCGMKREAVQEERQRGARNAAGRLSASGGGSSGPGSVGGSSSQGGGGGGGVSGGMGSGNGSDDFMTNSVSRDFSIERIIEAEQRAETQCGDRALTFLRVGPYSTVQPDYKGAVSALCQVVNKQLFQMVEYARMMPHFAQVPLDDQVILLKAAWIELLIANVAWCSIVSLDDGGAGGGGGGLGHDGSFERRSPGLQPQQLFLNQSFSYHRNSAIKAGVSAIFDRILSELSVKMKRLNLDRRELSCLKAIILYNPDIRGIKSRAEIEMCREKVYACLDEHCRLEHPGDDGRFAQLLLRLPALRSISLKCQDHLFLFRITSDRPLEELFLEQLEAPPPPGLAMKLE

[4] = molecular target: T1, Ecdysone receptor (Drosophila melanogaster); experiment: Agonist activity at ecdysone receptor in Drosophila melanogaster S2 cells at 100 uM after 24 hr by luciferase reporter gene assay relative to 20-hydroxyecdysone; type: cell-based
[5] = molecular target: T3, Ecdysone receptor; experiment: as §1; type: cell-based
[6] = molecular target: T4, Ecdysone receptor (Bombyx mori, UniProt P49881); experiment: as §2; type: cell-based
T4 sequence (P49881 whole entry): T2 sequence (whole entry)

[7] = molecular target: T5, Ecdysone receptor (Aedes aegypti, UniProt P49880+Q9GSG8); experiment: Agonist activity at Aedes aegypti ecdysone receptor expressed in mammalian cells by reporter gene assay; type: cell-based
T5 sequence (P49880 whole entry): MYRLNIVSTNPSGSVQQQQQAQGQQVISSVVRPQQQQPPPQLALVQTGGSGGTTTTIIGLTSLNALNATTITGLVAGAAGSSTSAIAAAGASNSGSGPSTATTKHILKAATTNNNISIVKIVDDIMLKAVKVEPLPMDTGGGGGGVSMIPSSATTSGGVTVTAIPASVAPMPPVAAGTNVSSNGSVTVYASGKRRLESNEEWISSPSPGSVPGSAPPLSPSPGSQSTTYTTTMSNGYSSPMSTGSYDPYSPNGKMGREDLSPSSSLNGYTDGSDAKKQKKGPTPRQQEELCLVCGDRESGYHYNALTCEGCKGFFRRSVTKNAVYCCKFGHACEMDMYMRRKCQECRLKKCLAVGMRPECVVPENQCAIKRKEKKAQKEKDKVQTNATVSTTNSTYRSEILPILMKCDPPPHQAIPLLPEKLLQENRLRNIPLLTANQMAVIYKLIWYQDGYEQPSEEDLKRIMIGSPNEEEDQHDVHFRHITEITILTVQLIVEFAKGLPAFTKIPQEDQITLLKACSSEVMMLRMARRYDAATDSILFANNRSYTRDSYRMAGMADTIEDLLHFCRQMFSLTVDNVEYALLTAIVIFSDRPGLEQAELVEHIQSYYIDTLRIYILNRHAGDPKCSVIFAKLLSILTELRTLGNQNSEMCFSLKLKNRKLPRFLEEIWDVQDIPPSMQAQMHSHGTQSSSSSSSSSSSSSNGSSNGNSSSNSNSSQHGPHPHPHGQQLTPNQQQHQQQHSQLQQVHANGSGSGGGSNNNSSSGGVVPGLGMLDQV
T5 sequence (Q9GSG8 whole entry): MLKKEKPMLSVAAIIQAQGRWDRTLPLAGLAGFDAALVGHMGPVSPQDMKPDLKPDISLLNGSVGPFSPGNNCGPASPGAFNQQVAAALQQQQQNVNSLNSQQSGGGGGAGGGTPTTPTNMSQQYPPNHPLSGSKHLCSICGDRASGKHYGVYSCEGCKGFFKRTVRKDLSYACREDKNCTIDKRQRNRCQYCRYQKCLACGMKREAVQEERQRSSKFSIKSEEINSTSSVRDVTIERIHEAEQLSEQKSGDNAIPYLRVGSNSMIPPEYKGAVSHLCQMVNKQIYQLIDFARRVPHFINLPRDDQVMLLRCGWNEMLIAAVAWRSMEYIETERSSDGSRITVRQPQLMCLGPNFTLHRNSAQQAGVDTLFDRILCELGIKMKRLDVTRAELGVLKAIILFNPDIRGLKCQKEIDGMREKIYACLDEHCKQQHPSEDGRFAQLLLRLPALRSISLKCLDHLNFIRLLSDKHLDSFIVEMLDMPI

[8] = molecular target: Ecdysone receptor (Aedes aegypti) (UniProt P49880+Q9GSG8); experiment: Agonist activity at Aedes aegypti ecdysone receptor expressed in mammalian cells by reporter gene assay relative to control; type: cell-based
[9] = Cytotoxicity against Drosophila melanogaster S2 cells at 10 to 100 uM after 24 hr by CellTiter assay; type: cell-based; details: s2, 24 h
[10] = molecular target: T1, Ecdysone receptor (Drosophila melanogaster); experiment: Agonist activity at ecdysone receptor in Drosophila melanogaster S2 cells at 10 uM after 24 hr by luciferase reporter gene assay relative to 20-hydroxyecdysone; type: cell-based

Row | Compound | pEC50 [1] | EC50 [3] [nM] | Efficacy [4] [%] | EC50 [5] [nM] | EC50 [6] [nM] | further results
1 | Cc1ccc(N(C(=O)c2ccc(Cl)cc2)C2CC(C)N(C(=O)c3ccc(Cl)cc3)c3ccc(C)cc32)cc1 (stereo not drawn) | inactive |  |  |  |  | pEC50 [2]: inactive
2 | CC(C)(C)N(NC(=O)c1ccccc1Cl)C(=O)c1ccccc1Cl |  | 2570 | 48 | 105000 | 331 | 
3 | Cc1ccc(NC2CCN(C(=O)c3ccc(Cl)cc3)c3ccccc32)cc1 (stereo not drawn) | inactive |  |  |  |  | pEC50 [2]: inactive
4 | CC1CC(Nc2ccc(F)cc2)c2cc(F)ccc2N1C(=O)c1ccc(Cl)cc1 (stereo not drawn) |  |  | 12 | > 100000 |  | EC50 [7]: 646 nM; Efficacy [8]: 70%
5 | CC(C)(C)N(NC(=O)c1ccccc1)C(=O)c1ccccc1 [RH-5849] |  | 1820 | 62 | 37200 | 427 | Activity [9]: Non-toxic
6 | CN(C(=O)c1ccccc1)N(C)C(=O)c1ccccc1 | inactive |  |  |  | > 100000 | 
7 | CC(C)(C)N(NC(=O)c1ccc(Cl)cc1)C(=O)c1ccccc1 [HALOFENOZIDE] |  |  | 57 | 7760 | 87.1 | Activity [9]: Non-toxic
8 | CCCCC(=O)NN(C(=O)c1cc(C)cc(C)c1)C(C)(C)C | inactive |  |  |  | 1860 | 
9 | CC(C)(C)N(NC(=O)c1ccccc1)C(=O)c1ccccc1Cl |  |  |  | 8510 | 75.9 | Efficacy [10]: 57%
10 | Cc1ccccc1C(=O)N(NC(=O)c1ccccc1)C(C)(C)C |  | 3800 | 45 | 120000 | 224 | 
11 | Cc1ccc(NC2CCN(C(=O)c3ccc(Cl)cc3)CC2)cc1 | inactive |  |  |  |  | pEC50 [2]: inactive
12 | CCCCCC(=O)N(NC(=O)c1cc(C)cc(C)c1)C(C)(C)C | inactive |  |  |  | 8710 | 
13 | CC(C)(C)N(NC(=O)c1ccccc1)C(=O)c1ccccc1Br |  | 794 | 55 | 81300 | 170 | 
14 | CCc1ccc(C(=O)NN(C(=O)c2ccccc2Cl)C(C)(C)C)cc1 |  | 219 | 71 | 15500 | 5.75 | 
15 | CC(C)(C)N(NC(=O)c1ccccc1)C(=O)c1ccccc1C(F)(F)F |  | 3630 | 63 | 33900 | 631 | 
